According to patent US20040142979A1, “Heteroarylsulfonylmethyl hydroxamic acids and amides and their use as protease inhibitors” (priority 2002, published 2004):

Legend:
Format in all cases: biochemical
Human recombinant MMP-14 = target: T1, Human recombinant MMP-14 (Homo sapiens, UniProt P50281); assay: In vitro MMP inhibition analysis (fluorogenic peptide substrate), MMP-14; details: human recombinant catalytic domain; 4 μM substrate (A); apparent Ki without substrate correction
T1 construct: The catalytic domain enzyme was expressed in E. Coli inclusion bodies; made in house
Method: (§1) Several compounds and salts were analyzed in an in vitro assay to determine their ability to inhibit the MMP cleavage of peptide substrates. Inhibition constant (Ki) were calculated from the assayed compound-MMP interactions.
(§2) Human recombinant MMP-1, MMP-2, MMP-9, MMP-13, and MMP-14 were used in this assay. All enzymes were prepared in Assignee's laboratories following usual laboratory procedures. Protocols for the preparation and use of these enzymes are available in the scientific literature. See, e.g., Enzyme Nomenclature (Academic Press, San Diego, Calif., 1992) (and the citations therein). See also, Freije et al., J. Biol. Chem., 269(24), 16766-16773 (1994).
The MMP-14 full length cDNA was provided by Dr. Gregory Goldberg of Washington University (St. Louis, Mo.). The catalytic domain enzyme was expressed in E. Coli inclusion bodies, solubilized in urea, purified on a preparative […] reverse phase HPLC column, and then refolded in the presence of zinc acetate and purified for use.
(§3) All MMPs were activated using 4-aminophenylmercuric acetate (“APMA”, Sigma Chemical, St. Louis, Mo.) or trypsin. MMP-9 also was activated using human recombinant MMP-3 (purified in Assignee's laboratory following standard cloning and purification techniques).
(§4) The following fluorogenic, methoxycoumarin-containing polypeptide substrate (A) was used in the MMP inhibition assays:
(§5) MCA-ArgProLeuGlyLeuDpaAlaArgGluArgNH2 (A)
(§6) “MCA” is 7-methoxycoumarin-4-yl acetyl. Substrate (A) was prepared Assignee's laboratory. In the absence of MMP inhibitory activity, the substrate is cleaved at the Gly-Leu peptide bond. This cleavage separates the highly fluorogenic peptide from the 2,4-dinitrophenyl quencher, thus resulting in increase of fluorescent intensity.
(§7) The stock solutions of the assayed compounds and salts were prepared in 1% dimethyl sulfoxide (DMSO). These stock solutions were diluted in Buffer A (100 mM Tris-HCl, 100 mM NaCl, 10 mM CaCl2, 0.05% polyoxyethylene 23 lauryl ether, pH 7.5) to obtain solutions with different compound concentrations, i.e., assay solutions with different concentrations of the assayed MMP inhibitory compound. The experiment controls contained the same amount of Buffer A/DMSO as the assayed sample, but contained none of the tested compound or salt.
(§8) The assays from which the Ki determinations were made were performed as follows. The assayed compound samples were incubated in separate wells of untreated white polystyrene plates (Nunc Nalgene International, Rochester, N.Y.), and analyzed on a Tecan SpectraFlour Plus plate reader. The excitation wavelength was 330 nm, and the emission wavelength -420 nm. All samples (assayed compounds and controls) were incubated in separate plate wells at room temperature for 1 hr in the presence of 4 μM of MMP substrate (A). In the absence of MMP inhibitory activity, substrate (A) was cleaved at the Gly-Leu bond resulting in an increase of relative fluorescence. Inhibition was observed as a reduced rate of this increase in relative fluorescence. […] This protocol is a modification of method by Knight et al., FEBS Lett., 296(3), 263-266 (1992). Apparent inhibitory constants were determined by non-linear regression of reaction velocity as a function of inhibitor and enzyme concentration using Morrison's equation, as described by Kuzmic, P., et al., Anal. Biochem., 286(1):45-50 (2000). Modifications were made in the non-linear regression method to allow a common control reaction rate and effective enzyme concentration to be shared between all dose-response relationships on a given assay plate. Since the substrate concentration was chosen to be at or below the Km, the apparent Ki's from this analysis were reported as Ki's without correction for the influence of substrate.
(§9) The above protocols were used to determine MMP inhibition Ki constants for the compounds in Examples 1, 2, and 4-42 above. All Ki values in Table 3 are given in nM units.

Human recombinant MMP-1 = target: T2, Human recombinant MMP-1 (Homo sapiens, UniProt P03956); assay: In vitro MMP inhibition analysis (fluorogenic peptide substrate), MMP-1; details: human recombinant enzyme; 4 μM substrate (A); apparent Ki without substrate correction
T2 construct: made in house; host or cells: MMP-1-transfected HT-1080 cells (spent media)
T2 sequence (P03956 100-469): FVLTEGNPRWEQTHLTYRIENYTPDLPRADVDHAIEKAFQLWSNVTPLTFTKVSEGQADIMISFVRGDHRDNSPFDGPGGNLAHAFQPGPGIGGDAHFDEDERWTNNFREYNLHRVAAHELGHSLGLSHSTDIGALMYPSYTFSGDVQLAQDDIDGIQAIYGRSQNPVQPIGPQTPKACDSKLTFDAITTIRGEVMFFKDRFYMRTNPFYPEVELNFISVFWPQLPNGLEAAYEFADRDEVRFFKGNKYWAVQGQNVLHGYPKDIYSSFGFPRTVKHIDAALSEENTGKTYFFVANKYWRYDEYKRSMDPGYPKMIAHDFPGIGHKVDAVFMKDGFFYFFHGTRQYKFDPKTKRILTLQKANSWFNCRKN
Method: as §1, §2
The MMP-1 proenzyme was purified from the spent media of MMP-1-transfected HT-1080 cells provided by Dr. Harold Welgus of Washington University (St. Louis, Mo.). The protein was purified on a zinc chelating column.
as §3, §4, §5, §6, §7, §8, §9

Human recombinant MMP-2 = target: T3, Human recombinant MMP-2 (Homo sapiens, UniProt P08253); assay: In vitro MMP inhibition analysis (fluorogenic peptide substrate), MMP-2; details: human recombinant enzyme; 4 μM substrate (A); apparent Ki without substrate correction
T3 construct: made in house; host or cells: MMP-2-transfected p2AHT2 cells
T3 sequence (P08253 110-660): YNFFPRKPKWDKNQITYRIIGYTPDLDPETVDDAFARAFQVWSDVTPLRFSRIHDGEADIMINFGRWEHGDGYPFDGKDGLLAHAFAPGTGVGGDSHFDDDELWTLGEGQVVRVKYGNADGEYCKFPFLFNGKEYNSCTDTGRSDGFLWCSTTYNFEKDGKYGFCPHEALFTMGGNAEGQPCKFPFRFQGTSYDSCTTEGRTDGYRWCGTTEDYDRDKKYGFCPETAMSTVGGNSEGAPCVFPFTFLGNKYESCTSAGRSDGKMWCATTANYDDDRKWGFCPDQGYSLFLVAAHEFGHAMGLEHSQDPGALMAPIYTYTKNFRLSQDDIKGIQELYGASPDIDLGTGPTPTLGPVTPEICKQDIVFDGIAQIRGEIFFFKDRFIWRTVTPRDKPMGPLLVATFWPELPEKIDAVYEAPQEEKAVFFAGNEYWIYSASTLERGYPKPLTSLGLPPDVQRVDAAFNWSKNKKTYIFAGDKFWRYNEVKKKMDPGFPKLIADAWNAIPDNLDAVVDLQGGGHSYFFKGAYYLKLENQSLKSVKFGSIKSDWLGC
Method: as §1, §2
The MMP-2 proenzyme was purified by gelatin Sepharose chromatography from MMP-2- transfected p2AHT2 cells provided by Dr. Gregory Goldberg of Washington University (St. Louis, Mo.).
as §3, §4, §5, §6, §7, §8, §9

Row | SMILES | Ki (Human recombinant MMP-14) | Ki (Human recombinant MMP-1) | Ki (Human recombinant MMP-2)
1 | CCCCN(C)C(=O)Cc1ccc(-c2ccc(S(=O)(=O)C3(C(=O)NO)CCOCC3)cn2)cc1 [Example 74] | > 10 µM | > 10 µM | 0.387 µM
2 | CN(C(=O)Cc1ccc(-c2ccc(S(=O)(=O)C3(C(=O)NO)CCOCC3)cn2)cc1)c1ccc(OC(F)(F)F)cc1 [Example 75] | > 10 µM | > 10 µM | 0.000218 µM
3 | CCCCNC(=O)c1ccc(-c2ccc(S(=O)(=O)C3(C(=O)NO)CCOCC3)cn2)cc1 [Example 76] | > 10 µM | 4.2 µM | 0.0263 µM
4 | CN(C(=O)c1ccc(-c2ccc(S(=O)(=O)C3(C(=O)NO)CCOCC3)cn2)cc1)c1ccccc1 [Example 78] | > 10 µM | > 10 µM | 0.895 µM
5 | CCN(CC)C(=O)c1ccc(-c2ccc(S(=O)(=O)C3(C(=O)NO)CCOCC3)cn2)cc1 [Example 79] | > 10 µM | > 10 µM | 8.2 µM
6 | CN(C(=O)c1ccc(-c2ccc(S(=O)(=O)C3(C(=O)NO)CCOCC3)cn2)cc1)c1ccc(OC(F)(F)F)cc1 [Example 81] | > 10 µM | > 10 µM | 2.06 µM
7 | CC(C)CN(C)C(=O)c1ccc(-c2ccc(S(=O)(=O)C3(C(=O)NO)CCOCC3)cn2)cc1 [Example 82] | > 10 µM | > 10 µM | 0.668 µM
8 | O=C(NO)C1(S(=O)(=O)c2ccc3c(c2)sc2nc(-c4ccccc4)cn23)CCOCC1 [Example 83] | 3.15 µM | > 10 µM | 0.0466 µM
9 | O=C(NO)C1(S(=O)(=O)c2ccc(-c3ccc(OC(F)(F)F)cc3)nc2)CCOCC1 [Example 84] | 0.671 µM | 4.48 µM | 0.000819 µM
